The results in this text go back to US7906709B2, “Methods for breeding glyphosate resistant plants and compositions thereof” (priority 2006, dated 2011).

The subject of experiment [1] is resistant (R) clone from F2bc1 hybrid. Description: Glyphosate sensitivity of resistant clone from F2bc1. Format: in vivo, Lolium perenne x Lolium rigidum. As for the experimental part:
The resistant plant from F2 population is backcrossed to the S parent (perennial ryegrass). Procedures for vernalization and pollination are similar to what is described above. Plants of the F1 hybrid from the backcross (F1bc1) are allowed to intercross to generate F2 (F2bc1). The inheritance of glyphosate resistance traits is evaluated in the F2bc1 population. Glyphosate sensitivity is evaluated at 0.25× and 8× glyphosate. Data collection and genetic evaluation are similar to the procedures as described above.
Backcrossing between the resistant plants from F2 to the sensitive parent of perennial ryegrass is designed to re-capture agronomic characteristics of sensitive parents (perennial ryegrass). The level of glyphosate resistance in the F1bc1 population appears to be similar to the previous results in F1 population. Distribution of glyphosate sensitivity level in the F2bc1 population is illustrated in FIG. 5. A sample of the resistant plants from the F2bc1 is evaluated for the level of sensitivity at 0, 1, 2, 4, 6, 8, 10, 12, and 14× glyphosate and data is illustrated in FIG. 6. No injury is observed up to 6× glyphosate, slight injury is observed at 8× and 10×, and severe injury is observed at 12× glyphosate.

For experiment [2], the system named is S biotype of the California rigid ryegrass. Description: Glyphosate drops on leaves, susceptible biotype. It is filed as in vivo, Lolium rigidum. As to conditions: three 2 µl drops on two leaves, corresponds to 1.12 kg ai ha^-1; one week after treatment; ROUNDUP ULTRA (isopropylamine salt). As for the experimental part: Rigid ryegrass (Lolium rigidum Gaud.) plants are collected from an almond orchard intensively treated with glyphosate since 1984. The collected plants are grown and seed produced in greenhouse. The resistant, intermediate and susceptible biotypes are selected in the first generation using 1.12, 2.24, and 3.36 kg ai ha^−1 rates of glyphosate. Further selection is continued with a high glyphosate rate (8.96 kg ai ha^−1) to select for the resistant and with the low rate (0.28 kg ai ha^−1) to select for the susceptible individuals. The resistant (R) and susceptible (S) biotypes used in this example are generated from the 5th and 4th cycle, respectively.
R and S biotypes of the California rigid ryegrass are grown individually to the fully vegetatively mature stage prior to seedhead formation. In one experiment, two fully mature leaves of each plant (one R and one S biotypes) are treated with three 2 μl drops of glyphosate (glyphosate isopropylamine salt, ROUNDUP ULTRA™, Monsanto Co., St. Louis, Mo.) solution applied to the upper leaf surface. This corresponds to a field rate of 1.12 kg ai ha^−1 glyphosate at a volume of 187 L ha^−1 and pressure of 172.5 kPa. One week after treatment, the S biotype is dead, but no injury is observed on the R biotype.

In the next experiment the test system is S line of rigid ryegrass. Description: Dose response study of plant injury, S line. The note with it: visual injury 4 WAT, 1× = 1.12 kg ai ha^-1. Format: in vivo, Lolium rigidum. As for the experimental part: A dose response study is conducted on the R and S lines of rigid ryegrass. The rates of glyphosate applied varied from 0.125×, 0.25×, 0.5×, 1×, 2×, 4×, 6×, 8×, 10×, to 12×. The sprayed solutions and application procedures are similar to those described previously. Plants are evaluated for visual injury at 4 WAT. Data (4 WAT) from two experiments with 8 replications of each treatment are analyzed by non-linear regression and fitted to a log-logistic model:
[formula] where y is predictive of plant injury (% of control), X50=dose required to obtain 50% injury and b is the slope at X50.

The test system of experiment [3] is F2 population of rigid ryegrass. Description: Glyphosate sensitivity of F2 population (RxS intercross). Format: in vivo, Lolium rigidum. The note with it: of 400 F2 plants. As for the experimental part: Twenty uniform non-sprayed plants of the F1 progeny (R×S) are grown and pooled to allow intercrossing to generate F2. Seeds are harvested at maturity and grown as described previously. Glyphosate sensitivity is further evaluated in the F2 population. At the tillering stage, as described previously, 400 plants of the F2 population are sprayed with 0.125× glyphosate (the rate used to identify the sensitive parent). The number of sensitive plants (severely injured and dead) is recorded 3 to 4 WAT. The survivors are re-acclimated for another week and re-sprayed with 8× glyphosate (the rate used to identify the resistant parent). The number of survivors is recorded 3 to 4 WAT. […] Expected ratios in the F2 population between sensitive, intermediate, and the resistant are evaluated with the model of one or two genes involved in the inheritance of glyphosate resistance as discussed in, for example, Diggle and Neve in Herbicide Resistance and World Grains, S. B. Powles and D. L. Shaner, eds. CRC Press, Boca Raton, London, New York, Washington, D.C., pp. 61-99 (2001). Chi-square analyses are used to determine the most acceptable ratio for F2 segregation and the inheritance of the glyphosate resistance.

Experiment [4] has as its system Transformed Agrobacterium (glyphosate-resistant rigid ryegrass EPSPS). Description: Growth in M-9 media with glyphosate, transformed with resistant EPSPS. It is filed as cell-based, Agrobacterium tumefaciens. The note with it: 48 hours. As for the experimental part:
The level of glyphosate resistance is assayed from resistant rigid ryegrass EPSPS-expressing Agrobacterium that are transformed with a DNA construct encoding the resistant EPSPS enzyme (SEQ. ID. NO. 16).
An EPSPS gene (SEQ. ID. NO. 15) is obtained from glyphosate resistant rigid ryegrass. The EPSPS gene is ligated with the binary vector pFGC5941, a 11406 bp construct with kanamycin resistant gene, BAR gene as a selectable marker, and 35S Promoter. The ligation is cloned in pGEM vector and grown in LB broth. The plasmid from cloned pGEM is confirmed for the inserted EPSPS gene by PCR.
The confirmed plasmid is transformed into Agrobacterium tumefaciens by “freeze thaw technique” using liquid nitrogen. The transformed Agrobacterium is grown in LB plated and maintained 28° C. for 72 h. Some colonies are grown in LB broth for 24 h and tested for the inserted EPSPS gene by PCR. The confirmed Agrobacterium is grown in 50 mL LB broth for 24 h. The Agrobacterium is centrifuged at 5000×g for 10 min, and the pellets are diluted with 2 mL 1.0 M CaCl2. At the same time, a wild-type Agrobacterium is also grown and extracted similar to the transformed Agrobacterium. The Agrobacterium solutions (10 μL) are grown in 50 mL media containing 1×M-9 salt media (SIGMA), 20 mM glucose, 2 mM MgSO4, and glyphosate at 0, 0.25, 0.5, 0.75, 1.0, 1.5, and 2 mM.
The growth (indicated by Optical Density 600 nm) is measured after 48 hours.

Each structure is given as a SMILES string.

On to `O=C(O)CNCP(=O)(O)O` [glyphosate, N-(phosphonomethyl) glycine], for which the injury entry in experiment [1] (8× and 10× glyphosate) was “slight injury”; in experiment [1] (12× glyphosate), “severe injury”; in experiment [1] (up to 6× glyphosate), “No injury”. Further, the Plant injury result in experiment [2] was “dead”. In addition, the “glyphosate rate for 50% injury” value in the experiment with S line of rigid ryegrass was determined as 0.1 ×. Moreover, in experiment [3] (0.125× glyphosate, 3 to 4 WAT), the “Sensitive plants (died from 0.125× glyphosate), observed” value was 27 plants. Further, in experiment [3] (between 0.125× and 8× glyphosate), the “Intermediate plants (0.125x-8x), observed” value is listed as 352 plants. The “Resistant plants (survived 8× glyphosate), observed” value in experiment [3] (re-sprayed with 8× glyphosate, 3 to 4 WAT) was determined as 21 plants. Moreover, the “Growth, OD 600 nm” value in experiment [4] (glyphosate 0.25 mM) worked out at 0.632; in experiment [4] (glyphosate 0.50 mM) it was 0.185; in experiment [4] (glyphosate 0.75 mM), 0.097; in experiment [4] (glyphosate 1.00 mM) it was 0.025; in experiment [4] (glyphosate 1.50 mM), 0.024; in experiment [4] (glyphosate 2.00 mM), 0.02. In addition, the “Growth, Percent” value in experiment [4] (glyphosate 0.25 mM) amounted to 98%; in experiment [4] (glyphosate 0.50 mM), 29%; in experiment [4] (glyphosate 0.75 mM), 15%; in experiment [4] (glyphosate 1.00 mM) it was 4%; in experiment [4] (glyphosate 1.50 mM), 4%; in experiment [4] (glyphosate 2.00 mM), 3%.
